Data as given in USRE45313E1, “Exendin variant peptides” (priority 1999, dated 2014).

Experiments:
carboxypeptidase A = target: T1, carboxypeptidase A (Bos taurus, UniProt P00730); assay: In vitro stability in carboxypeptidase A solution; details: pH 7.4
T1 sequence (P00730 111-419): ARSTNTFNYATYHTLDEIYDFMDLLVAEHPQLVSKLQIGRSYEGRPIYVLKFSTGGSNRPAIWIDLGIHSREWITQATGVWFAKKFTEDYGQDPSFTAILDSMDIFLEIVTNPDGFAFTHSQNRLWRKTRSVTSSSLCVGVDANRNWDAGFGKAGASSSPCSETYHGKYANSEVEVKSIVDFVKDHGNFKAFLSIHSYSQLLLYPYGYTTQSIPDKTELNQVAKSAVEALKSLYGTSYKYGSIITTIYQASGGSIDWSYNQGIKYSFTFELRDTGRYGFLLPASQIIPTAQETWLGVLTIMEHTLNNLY
Procedure: (§1) A SHT200D block heater from Stuart Scientific was used for heating of the peptide/enzyme solutions during the stability experiments. The degradation of the test compounds was studied at 37° C. in 50 mM phosphate buffer solutions of pH 7.4 containing leucine aminopeptidase (25 U/ml) or carboxypeptidase A (1 U/ml) or 100 mM ammoniumbicarbonate buffer of pH 8.0 containing dipeptidyl aminopeptidase IV (0.5 U/ml). Experiments were initiated by addition of an aliquot (100 μl) of a stock solution (1 mg/ml) of the peptide in water to 900 μl preheated enzyme solution in an Eppendorf microvial giving an initial concentration of 0.1 mg/ml (˜1.7·10−5-1.8·10−5 M) of the peptide. The peptide/enzyme solution was kept at 37° C. and at appropriate time intervals samples of 100 μl were withdrawn from the peptide/enzyme solution and mixed thoroughly with 20 μl 25% TFA in acetonitrile in order to stop the enzymatic degradation process. The inactivated samples were transferred to autosampler vials and analysed for content of intact test compound by HPLC as described below.
(§2) Samples from the stability experiments performed as described above were analysed by gradient HPLC analysis using the instrumentation described above and the following experimental conditions.
(§3) In vitro stability studies with the present peptides and peptide conjugates in the presence of selected proteolytic enzymes are applied as a tool for evaluating the protection of said peptides against proteolysis in vivo.
(§4) Water used was of highest quality obtained from a Milli-Q water treatment system (Millipore, Bedford, Mass., U.S.A.). Acetonitrile (ACN) was of super gradient quality obtained from Labscan Ltd. (Dublin, Ireland). […] Leucine aminopeptidase (EC 3.4.11.1), Carboxypeptidase A (EC 3.4.17.1) and Dipeptidyl peptidase (Dipeptidyl aminopeptidase IV, EC 3.4.14.5) were all obtained from Sigma (St. Louis, Mo., U.S.A.). Gradient HPLC analysis was done using a Hewlett Packard HP 1100 HPLC system consisting of a HP 1100 Binary Pump, a HP 1100 Autosampler, A HP 1100 Column Thermostat and a HP 1100 Variable Wavelength Detector. Hewlett Packard Chem-station for LC software (Rev. A.06.01) was used for instrument control and data acquisition. A Vydac 238TP54 (150×4.6 mm I.D.) column packed with 5 μm, C18, 300 Å

leucine aminopeptidase = target: T2, leucine aminopeptidase (Sus scrofa, UniProt P28839); assay: In vitro stability in leucine aminopeptidase solution; details: pH 7.4
T2 sequence (P28839 1-519): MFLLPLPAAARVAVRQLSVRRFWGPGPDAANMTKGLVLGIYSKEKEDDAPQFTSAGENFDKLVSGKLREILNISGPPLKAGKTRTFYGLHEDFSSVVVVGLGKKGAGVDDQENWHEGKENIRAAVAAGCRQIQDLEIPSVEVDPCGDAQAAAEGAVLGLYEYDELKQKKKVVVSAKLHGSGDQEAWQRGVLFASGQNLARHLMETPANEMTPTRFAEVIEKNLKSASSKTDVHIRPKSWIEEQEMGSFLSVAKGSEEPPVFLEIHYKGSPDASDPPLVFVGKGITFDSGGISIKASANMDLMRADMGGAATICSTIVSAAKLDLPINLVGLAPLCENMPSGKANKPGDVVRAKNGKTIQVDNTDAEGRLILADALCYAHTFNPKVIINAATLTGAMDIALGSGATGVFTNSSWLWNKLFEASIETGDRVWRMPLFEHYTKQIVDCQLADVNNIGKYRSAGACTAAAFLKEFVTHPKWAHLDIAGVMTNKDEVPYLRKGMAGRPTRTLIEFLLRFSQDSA
Procedure: as §1, §2, §3, §4

[1] = target: dipeptidyl aminopeptidase IV (Sus scrofa, UniProt P22411); assay: In vitro stability in dipeptidyl aminopeptidase IV solution; details: pH 8
Procedure: as §1, §2, §3, §4

[2] = target: T3, (Rattus norvegicus, UniProt P32301); details: inhibition of [^125I]GLP-1 binding; cited from earlier work
T3 construct: host or cells: brain tissue: nucleus of the solitary tract
T3 sequence (P32301 22-463): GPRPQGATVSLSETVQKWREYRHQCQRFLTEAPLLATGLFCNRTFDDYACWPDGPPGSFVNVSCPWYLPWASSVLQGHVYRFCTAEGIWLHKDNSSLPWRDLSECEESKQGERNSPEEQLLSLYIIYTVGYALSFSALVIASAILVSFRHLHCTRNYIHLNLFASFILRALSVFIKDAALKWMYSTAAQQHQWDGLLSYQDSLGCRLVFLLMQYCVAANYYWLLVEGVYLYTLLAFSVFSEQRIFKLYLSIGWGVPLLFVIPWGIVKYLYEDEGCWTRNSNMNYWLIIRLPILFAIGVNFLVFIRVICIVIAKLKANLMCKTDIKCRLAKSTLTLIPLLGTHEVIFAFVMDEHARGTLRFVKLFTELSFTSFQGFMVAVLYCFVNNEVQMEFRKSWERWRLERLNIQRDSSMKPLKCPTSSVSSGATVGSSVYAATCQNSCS

Sequence of dipeptidyl aminopeptidase IV (P22411 whole entry): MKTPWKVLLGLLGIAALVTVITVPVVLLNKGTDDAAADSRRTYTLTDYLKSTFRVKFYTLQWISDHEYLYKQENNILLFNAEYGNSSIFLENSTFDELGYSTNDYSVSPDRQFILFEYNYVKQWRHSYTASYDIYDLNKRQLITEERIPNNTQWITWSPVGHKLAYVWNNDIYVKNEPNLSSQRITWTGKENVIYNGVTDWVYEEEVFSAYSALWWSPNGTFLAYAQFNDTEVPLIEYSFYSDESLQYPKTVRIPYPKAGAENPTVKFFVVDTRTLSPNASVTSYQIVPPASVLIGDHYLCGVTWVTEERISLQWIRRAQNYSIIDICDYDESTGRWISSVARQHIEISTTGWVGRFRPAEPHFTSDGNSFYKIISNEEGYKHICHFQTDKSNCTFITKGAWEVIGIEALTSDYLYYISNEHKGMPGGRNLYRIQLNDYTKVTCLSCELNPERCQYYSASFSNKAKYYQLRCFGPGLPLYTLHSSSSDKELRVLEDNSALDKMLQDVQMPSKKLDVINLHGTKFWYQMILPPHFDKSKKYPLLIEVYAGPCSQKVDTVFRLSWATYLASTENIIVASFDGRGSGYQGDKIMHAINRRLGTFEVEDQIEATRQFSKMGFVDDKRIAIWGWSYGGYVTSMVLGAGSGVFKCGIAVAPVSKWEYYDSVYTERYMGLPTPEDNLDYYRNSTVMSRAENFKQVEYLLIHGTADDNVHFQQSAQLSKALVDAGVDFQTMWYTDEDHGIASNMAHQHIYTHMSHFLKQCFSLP

**Q.** Which half-life at 0.1 mg/ml (carboxypeptidase A) does the source give for `CC[C@H](C)[C@H](NC(=O)[C@H](Cc1ccccc1)NC(=O)[C@H](CCC(=O)O)NC(=O)[C@H](CCCCN)NC(=O)[C@H](C)NC(=O)[C@H](C)NC(=O)[C@H](CCC(N)=O)NC(=O)CNC(=O)[C@H](CCC(=O)O)NC(=O)[C@H](CC(C)C)NC(=O)[C@H](Cc1ccc(O)cc1)NC(=O)[C@H](CO)NC(=O)[C@H](CO)NC(=O)[C@@H](NC(=O)[C@H](CC(=O)O)NC(=O)[C@H](CO)NC(=O)[C@@H](NC(=O)[C@H](Cc1ccccc1)NC(=O)[C@@H](NC(=O)CNC(=O)[C@H](CCC(=O)O)NC(=O)[C@H](C)NC(=O)[C@@H](N)Cc1c[nH]cn1)[C@@H](C)O)[C@@H](C)O)C(C)C)C(=O)N[C@@H](C)C(=O)N[C@@H](Cc1c[nH]c2ccccc12)C(=O)N[C@@H](CC(C)C)C(=O)N[C@H](C(=O)N[C@@H](CCCCN)C(=O)NCC(=O)N[C@@H](CCCNC(=N)N)C(N)=O)C(C)C` [GLP-1, H-hGLP-1(7-36)-NH2, reference compound] here?
**A.** 48 min

**Q.** And the half-life at 0.1 mg/ml (leucine aminopeptidase)?
**A.** 152 min

**Q.** And the half-life at 0.1 mg/ml [1]?
**A.** 2 min

**Q.** For [Tyr39]exendin-4, which Ki [2] is on record?
**A.** 9.4 nM
